Measurements taken from ChEMBL document CHEMBL5725638, “3-substituted 5-amino-6H-thiazolo[4,5-d]pyrimidine-2,7-dione compounds for the treatment and prophylaxis of virus infection” (2018).

Target: T1, Toll-like receptor 7 (Homo sapiens, UniProt Q9NYK1)
T1 sequence (Q9NYK1 whole entry): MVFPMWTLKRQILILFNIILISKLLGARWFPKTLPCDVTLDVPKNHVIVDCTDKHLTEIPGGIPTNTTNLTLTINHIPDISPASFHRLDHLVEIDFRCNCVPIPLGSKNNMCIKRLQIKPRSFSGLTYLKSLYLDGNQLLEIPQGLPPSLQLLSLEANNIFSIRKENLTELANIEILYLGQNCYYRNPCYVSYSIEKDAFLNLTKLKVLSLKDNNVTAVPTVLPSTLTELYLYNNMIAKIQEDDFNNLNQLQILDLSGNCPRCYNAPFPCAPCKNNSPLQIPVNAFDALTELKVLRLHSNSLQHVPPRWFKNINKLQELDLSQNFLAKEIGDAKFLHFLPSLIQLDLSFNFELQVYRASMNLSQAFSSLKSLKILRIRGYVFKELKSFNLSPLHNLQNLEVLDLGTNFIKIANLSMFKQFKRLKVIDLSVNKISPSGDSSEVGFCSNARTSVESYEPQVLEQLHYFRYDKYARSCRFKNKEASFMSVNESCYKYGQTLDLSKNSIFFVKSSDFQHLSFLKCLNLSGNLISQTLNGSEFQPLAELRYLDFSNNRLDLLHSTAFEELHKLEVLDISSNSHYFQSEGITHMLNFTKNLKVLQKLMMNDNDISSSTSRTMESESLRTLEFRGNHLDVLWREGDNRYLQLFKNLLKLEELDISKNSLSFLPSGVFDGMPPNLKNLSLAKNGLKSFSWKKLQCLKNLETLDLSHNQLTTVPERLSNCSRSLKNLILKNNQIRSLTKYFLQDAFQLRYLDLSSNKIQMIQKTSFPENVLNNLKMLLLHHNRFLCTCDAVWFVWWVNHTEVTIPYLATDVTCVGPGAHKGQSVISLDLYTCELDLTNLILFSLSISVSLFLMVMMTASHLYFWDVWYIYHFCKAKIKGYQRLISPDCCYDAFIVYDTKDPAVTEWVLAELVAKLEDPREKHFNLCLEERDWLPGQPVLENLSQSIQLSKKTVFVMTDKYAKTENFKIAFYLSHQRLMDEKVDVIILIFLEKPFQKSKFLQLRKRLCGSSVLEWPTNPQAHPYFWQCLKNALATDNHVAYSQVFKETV
Assay: HEK293-Blue-hTLR-7 Cells Ass: A stable HEK293-Blue-hTLR-7 cell line was purchased from InvivoGen (Cat.#: hkb-htlr7, San Diego, Calif., USA). These cells were designed for studying the stimulation of human TLR7 by monitoring the activation of NF-κB. A SEAP (secreted embryonic alkaline phosphatase) reporter gene was placed under the control of the IFN-β[…] minimal promoter fused to five NF-κB and AP-1-binding sites. The SEAP was induced by activating NF-κB and AP-1 via stimulating HEK-Blue hTLR7 cells with TLR7 ligands. Therefore the reporter expression was regulated by the NF-κB promoter upon stimulation of human TLR7 for 20 hours. The cell culture supernatant SEAP reporter activity was determined using QUANTI-Blue kit (Cat.#: rep-qb1, Invivogen, San Diego, Calif., USA) at a wavelength of 640 nm, a detection medium that turns purple or blue in the presence of alkaline phosphatase.HEK293-Blue-hTLR7 cells were incubated at a density of 250,000 ~ 450,000 cells/mL in a volume of 180 μL in a 96-well plate in Dulbecco's Modified Eagle's medium (DMEM) containing 4.5 g/L glucose, 50 U/mL penicillin, 50 […], 100 […], 2 mM L-glutamine, 10% (v/v) heat-inactivated fetal bovine serum for 24 h. […]

EC50: 48 µM
SMILES: CCC(O)[C@@H]1C[C@@H](OC(C)=O)[C@H](n2c(=O)sc3c(=O)[nH]c(N)nc32)O1 (single isomer, unassigned)
